Legend:
field violet = assay: Test D preemergence; assay type: in vivo, Viola arvensis; conditions: for Plant response rating: Field Violet: scale 0 to 100
From the text: (§1) Seeds of plant species selected from bluegrass (annual bluegrass, Poa annua), blackgrass (Alopecurus myosuroides), canarygrass (Phalaris minor), chickweed (common chickweed, Stellaria media), galium (catchweed bedstraw, Galium aparine), bromegrass, down (downy bromegrass, Bromus tectorum), Russian thistle (Salsola kali), field poppy (Papaver rhoeas), field violet (Viola arvensis), foxtail, green (green foxtail, Setaria viridis), deadnettle (henbit deadnettle, Lamium amplexicaule), ryegrass, Ital. (Italian ryegrass, Lolium multiflorum), kochia (Kochia scoparia), lambsquarters (Chenopodium album), oilseed rape (Brassica napus), pigweed (Amaranthus retroflexus), chamomile (scentless chamomile, Matricaria inodora), speedwell (bird's-eye speedwell, Veronica persica), barley, spring (spring barley, Hordeum vulgare), wheat, spring (spring wheat, Triticum aestivum), buckwheat, wild (wild buckwheat, Polygonum convolvulus), wild mustard (Sinapis arvensis), oat, wild (wild oat, Avena fatua), radish, wild (wild radish, Raphanus raphanistrum), […]), barley, winter (winter barley, Hordeum vulgare), and wheat, winter (winter wheat, Triticum aestivum) were planted into a silt loam soil and treated preemergence with test chemicals formulated in a non-phytotoxic solvent mixture which included a surfactant. At the same time, these species were planted in pots containing Sunshine Redi-Earth® planting medium comprising spaghnum peat moss, vermiculite, starter nutrients and dolomitic limestone and treated with postemergence applications of the test chemicals formulated in the same manner. Plants ranged in height from 2 to 18 cm (1- to 4-leaf stage). Treated plants and controls were maintained in a controlled growth environment for 14 to 21 d after which time all species were compared to controls and visually evaluated. […] A dash (-) response means no test result.

Russian thistle = assay: Test D postemergence; assay type: in vivo, Salsola kali; conditions: scale 0 to 100
From the text: as §1

ryegrass, Ital. = assay: Test D preemergence; assay type: in vivo, Lolium multiflorum; conditions: for Plant response rating: Ryegrass, Ital.: scale 0 to 100
From the text: as §1

blackgrass [1] = assay: Test D postemergence; assay type: in vivo, Alopecurus myosuroides; conditions: scale 0 to 100
From the text: as §1

speedwell = assay: Test D preemergence; assay type: in vivo, Veronica persica; conditions: for Plant response rating: Speedwell: scale 0 to 100
From the text: as §1

radish, wild = assay: Test D postemergence; assay type: in vivo, Raphanus raphanistrum; conditions: scale 0 to 100
From the text: as §1

ryegrass, Italian = assay: Test A postemergence; assay type: in vivo, Lolium multiflorum; conditions: 0 to 100 scale (0 no effect, 100 complete control), approx. 10 d
Method in brief: (§2)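 Seeds sown in loam soil–sand blend received a directed preemergence soil spray of test chemical in non-phytotoxic solvent with surfactant; postemergence plants, 2 to 10 cm at one- to two-leaf stage, were sprayed with the same formulation. Injury visually rated versus untreated controls after ~10 d in greenhouse, 0–100 scale.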

bromegrass, down = assay: Test D postemergence; assay type: in vivo, Bromus tectorum; conditions: scale 0 to 100
From the text: as §1

oat, wild = assay: Test D postemergence; assay type: in vivo, Avena fatua; conditions: scale 0 to 100
From the text: as §1

windgrass = assay: Test D preemergence; assay type: in vivo, Apera spica-venti; conditions: for Plant response rating: Windgrass: scale 0 to 100
From the text: as §1

blackgrass [2] = assay: Test A postemergence; assay type: in vivo, Alopecurus myosuroides; conditions: 0 to 100 scale (0 no effect, 100 complete control), approx. 10 d
Method in brief: as §2

field poppy = assay: Test D preemergence; assay type: in vivo, Papaver rhoeas; conditions: for Plant response rating: Field Poppy: scale 0 to 100
From the text: as §1

lambsquarters = assay: Test C preemergence; assay type: in vivo, Chenopodium album; conditions: for Plant response rating (scale of 0 to 100 where 0 is no effect and 100 is complete control): Lambsquarters, preemergence; for Lambsquarters plant response rating (0 to 100): Preemergence, visual rating after 13 to 15 d
From the text: (§3) Seeds of plant species selected from blackgrass (Alopecurus myosuroides), ryegrass, Italian (Italian ryegrass, Lolium multiflorum), wheat (winter wheat, Triticum aestivum), galium (catchweed bedstraw, Galium aparine), corn (Zea mays), crabgrass, large (large crabgrass, Digitaria sanguinalis), foxtail, giant, (giant foxtail, Setaria faberii), johnsongrass (Sorghum halepense), lambsquarters (Chenopodium album), morningglory (Ipomoea coccinea), nutsedge, yellow (yellow nutsedge, Cyperus esculentus), pigweed (Amaranthus retroflexus), ragweed (common ragweed, Ambrosia elatior), soybean (Glycine max), barnyardgrass (Echinochloa crus-galli), oilseed rape (Brassica napus), waterhemp (common waterhemp, Amaranthus rudis), and velvetleaf (Abutilon theophrasti) were planted into a blend of loam soil and sand and treated preemergence with test chemicals formulated in a non-phytotoxic solvent mixture which included a surfactant. At the same time, plants selected from these crop and weed species and also chickweed (common chickweed, Stellaria media), oat, wild (wild oat, Avena fatua), and kochia (Kochia scoparia), were planted in pots containing Sunshine Redi-Earth® planting medium comprising spaghnum peat moss, vermiculite, starter nutrients and dolomitic limestone and treated with postemergence applications of test chemicals formulated in the same manner. Plants ranged in height from 2 to 18 cm (1- to 4-leaf stage) for postemergence treatments. […] A dash (-) response means no test result.

blackgrass [3] = assay: Test C preemergence; assay type: in vivo, Alopecurus myosuroides; conditions: for Plant response rating (scale of 0 to 100 where 0 is no effect and 100 is complete control): Blackgrass, preemergence; for Blackgrass plant response rating (0 to 100): Preemergence, visual rating after 13 to 15 d
From the text: as §3

[4] = 16 g ai/ha, 0 is no effect, 100 is complete control

Q: Which results are given for `CCOc1nc(-c2ccccc2)nn1Cc1ccnc(C(F)(F)F)c1` [Compound 27]?
A: Plant response rating (0 to 100), Field Violet (field violet; [4]): 85; Plant response rating: Field Violet (field violet; 62 g ai/ha): 98; Plant response rating: Field Violet (field violet; 125 g ai/ha): 100; Plant response rating: Russian Thistle (Russian thistle; 16 g ai/ha): 75; Plant response rating: Russian Thistle (Russian thistle; 31 g ai/ha): 80; Plant response rating: Russian Thistle (Russian thistle; 62 g ai/ha): 85; Plant response rating: Russian Thistle (Russian thistle; 125 g ai/ha): 85; Plant response rating (0 to 100), Ryegrass, Ital. (ryegrass, Ital.; [4]): 25; Plant response rating: Ryegrass, Ital. (ryegrass, Ital.; 62 g ai/ha): 65; Plant response rating: Ryegrass, Ital. (ryegrass, Ital.; 125 g ai/ha): 75; Plant response rating: Blackgrass (blackgrass [1]; 16 g ai/ha): 45; Plant response rating: Blackgrass (blackgrass [1]; 31 g ai/ha): 50; Plant response rating: Blackgrass (blackgrass [1]; 62 g ai/ha): 55; Plant response rating: Blackgrass (blackgrass [1]; 125 g ai/ha): 65; Plant response rating (0 to 100), Speedwell (speedwell; [4]): 95; Plant response rating: Speedwell (speedwell; 62 g ai/ha): 100; Plant response rating: Speedwell (speedwell; 125 g ai/ha): 100; Plant response rating: Radish, Wild (radish, wild; 16 g ai/ha): 85; Plant response rating: Radish, Wild (radish, wild; 31 g ai/ha): 90; Plant response rating: Radish, Wild (radish, wild; 62 g ai/ha): 100; Plant response rating: Radish, Wild (radish, wild; 125 g ai/ha): 100; Plant response rating, Ryegrass, Italian (ryegrass, Italian; 125 g ai/ha): 50; Plant response rating, Ryegrass, Italian (ryegrass, Italian; 500 g ai/ha): 90; Plant response rating: Bromegrass, Down (bromegrass, down; 16 g ai/ha): 25; Plant response rating: Bromegrass, Down (bromegrass, down; 31 g ai/ha): 30; Plant response rating: Bromegrass, Down (bromegrass, down; 62 g ai/ha): 50; Plant response rating: Bromegrass, Down (bromegrass, down; 125 g ai/ha): 65; Plant response rating: Oat, Wild (oat, wild; 16 g ai/ha): 35; Plant response rating: Oat, Wild (oat, wild; 31 g ai/ha): 45; Plant response rating: Oat, Wild (oat, wild; 62 g ai/ha): 50; Plant response rating: Oat, Wild (oat, wild; 125 g ai/ha): 60; Plant response rating (0 to 100), Windgrass (windgrass; [4]): 5; Plant response rating: Windgrass (windgrass; 62 g ai/ha): 80; Plant response rating: Windgrass (windgrass; 125 g ai/ha): 95; Plant response rating, Blackgrass (blackgrass [2]; 125 g ai/ha): 70; Plant response rating, Blackgrass (blackgrass [2]; 500 g ai/ha): 80; Plant response rating (0 to 100), Field Poppy (field poppy; [4]): 95; Plant response rating: Field Poppy (field poppy; 62 g ai/ha): 100; Plant response rating: Field Poppy (field poppy; 125 g ai/ha): 100; Plant response rating (scale of 0 to 100 where 0 is no effect and 100 is complete control) (lambsquarters; 125 g ai/ha): 98; Plant response rating (scale of 0 to 100 where 0 is no effect and 100 is complete control) (lambsquarters; 250 g ai/ha): 100; Lambsquarters plant response rating (0 to 100) (lambsquarters; 31 g ai/ha): 90; Lambsquarters plant response rating (0 to 100) (lambsquarters; 62 g ai/ha): 98; Plant response rating (scale of 0 to 100 where 0 is no effect and 100 is complete control) (blackgrass [3]; 125 g ai/ha): 50; Plant response rating (scale of 0 to 100 where 0 is no effect and 100 is complete control) (blackgrass [3]; 250 g ai/ha): 90; Blackgrass plant response rating (0 to 100) (blackgrass [3]; 31 g ai/ha): 5; Blackgrass plant response rating (0 to 100) (blackgrass [3]; 62 g ai/ha): 5

Source: US10681909B2, “Herbicidal triazoles” (FMC Corporation, priority 2014, dated 2020)
